# Source: patent US20110166070A1, “METHOD OF PREVENTING PREMATURE DELIVERY” (priority 2008, published 2011)
# Columns and labels:
# uterine contractions = conditions: cited from earlier work; for stopping uterine contractions: vaginal progesterone, injection of 17 alpha-hydroxyprogesterone caproate
# [1] = tested on: healthy primiparous women at ≧40 weeks gestation; test: Clinical study: change from baseline in Bishop score and cervical dilation (cervical ripening), 24 h IV infusion; assay type: in vivo, human; set-up: key to Total Bishop Score - Change from Baseline, Minimum / Total Bishop Score - Change from Baseline, Maximum / Total Bishop Score - Change from Baseline, Mean / Total Bishop Score - Change from Baseline, Median: Bishop score points; total score ranges 0 to 13; conditions: for Total Bishop Score - Change from Baseline, Maximum / Total Bishop Score - Change from Baseline, Median / Total Bishop Score - Change from Baseline, Minimum / Total Bishop Score - Change from Baseline, Mean: 75 μg/kg/d IV, ITT
# Procedure: Overview of the Clinical Study. The current study was designed with two objectives. The first was to determine the safety of intravenous administration of recombinant human relaxin in women at term for 24 hours. The second objective was to determine whether a high dose of relaxin administered by this method for 24 hours could ripen the cervix or induce labor. The primary efficacy endpoint was change from baseline in Bishop score, which is a composite, well accepted measurement of cervical ripening (Bishop, 1964). The score has 5 components, all of which contribute to the cervical changes necessary for vaginal delivery of the baby: dilation, effacement, station, consistency and position of cervix.
# Study Subjects. Study subjects were healthy primiparous women at ≧40 weeks gestation who were admitted to the hospital for scheduled induction of labor. This study was conducted in compliance with the requirements of the protocol, International Conference on Harmonization (ICH), Good Clinical Practices (GCP), FDA, local regulations and BAS Medical, Inc.'s standard operating procedures (SOP). The investigators were responsible for obtaining informed consent from each patient participating in the study. All pertinent aspects of the study were explained to the patient before he or she signed the informed consent form. Informed consent was approved by local ethics committees and was obtained from the patient before any activity or treatment was undertaken which was not part of routine care. This included, but was not limited to, the performance of diagnostic or therapeutic procedures and the administration of the first dose of the study medication.
# Part A was a multicenter, randomized, double-blind, placebo-controlled, dose escalation study of 18 subjects at ≧40 weeks gestation and who were scheduled for induction. Doses of 7.5, 25 and 75 mcg/kg/day of relaxin were tested. Subjects were treated in cohorts of 6 and randomly assigned to receive relaxin or placebo in a 4:2 ratio, respectively. Dose escalation to the next dose level occurred once safety data was reviewed.
# (§1) Eligible patients were admitted to the hospital at least 24-hours prior to scheduled induction. Either relaxin or matching placebo was administered by continuous intravenous infusion for 24 hours prior to induction. Subjects were monitored throughout the administration of study medication for blood pressure and heart rate, as well as for uterine contractions and the onset of labor. Fetal nonstress testing and heart rate monitoring were conducted for evaluation of fetal well-being. Blood samples were drawn for serum chemistry and hematology at baseline, 12 and 24 hr of dosing, and at 2 days, 1 week and 4 weeks after delivery. Samples for the evaluation of serum relaxin levels were drawn at baseline, 30 minutes, 1, 4, 6, 12, and 24 hr of dosing and a sample of cord blood was also drawn for relaxin measurement. A sample was also drawn from the study subject at 2 days post-delivery. Samples for measurement of development of anti-relaxin antibodies were drawn prior to dosing and at 1 and 4 weeks post-delivery. Neonates were evaluated for relaxin levels at 2 days and for the presence of anti-relaxin antibodies at 1 and 4 weeks.
# (§2) Part B of the study was a multi-center, randomized, double-blind, placebo-controlled, parallel-group study of 50 subjects at ≧40 weeks gestation and who were scheduled for induction. Subjects were randomized in a 1:1 ratio to the most appropriate dose of relaxin determined from Part A or to placebo. As in Part A, eligible subjects were administered an intravenous infusion of relaxin or placebo for 24 hours prior to induction. Subjects and neonates were evaluated in a manner identical to that in Part A for all assessments.
# The primary efficacy endpoint was change from baseline in Bishop score at 6, 12 and 24 hours (or end of study drug administration). […]
# [2] = tested on: healthy primiparous women at ≧40 weeks gestation; test: Clinical study: secondary efficacy endpoints related to delivery; assay type: in vivo, human
# Procedure: as §1, §2
# The primary efficacy endpoint was change from baseline in Bishop score at 6, 12 and 24 hours (or end of study drug administration). The score ranges from 0 (absence of any cervical changes) to a maximum of 13, representing a cervix that is completely dilated (>5 cm), effaced (>80%), soft, at a +1 or +2 station, and anteriorly positioned (Bishop, 1964). A number of secondary efficacy endpoints were also explored: Time to complete dilation; proportion of subjects with Bishop score change>3; proportion of subjects with Bishop score>5; proportion of subjects with Bishop score>8; time to active labor; time to delivery (vaginal or c-section); frequency of uterine contractions; incidence of uterine hyperstimulation requiring terbutaline treatment or discontinuation of study drug (relaxin or placebo) infusion; incidence of spontaneous labor; rates of c-section; incidence of abnormal fetal heart rate tracings; changes from baseline in systolic and diastolic blood pressure; changes from baseline in serum creatinine and predicted creatinine clearance as determined by the Cockroft-Gault formula.
# Statistical Analysis. Analyses were conducted on the Intent-to-treat (ITT) population, which consisted of all randomized subjects and on the Per-protocol (PP) population, which consisted of all randomized subjects who received study medication for at least 18 hours (75% compliance) and had baseline and 24 hour (or end of treatment) assessments of the Bishop Score. For efficacy comparisons, the patients from Part A that received the active dose administered in Part B are pooled with the patients from Part B (pooled relaxin group) as are all placebo patients from parts A and B (pooled placebo group).
# [3] = Serum relaxin concentrations (Relaxin ELISA); assay type: in vivo, human
# Procedure: as §1
# Relaxin ELISA. The measurement of serum relaxin concentrations is based on an enzyme immunoassay technique using 96-well microtiter plates coated with affinity purified goat-anti-relaxin antibodies. Pre-diluted controls and unknown samples were pipetted into the wells of the microtiter plate and incubated at 2-8° C. allowing for any relaxin present to bind to the anti-relaxin antibodies. After an overnight incubation the plates were washed to remove any non-reactive serum components. […] After a 20-minute incubation, an aliquot of 2M sulfuric acid was added to stop the color reaction and the absorbance was measured at 450 nm (reference 650 nm) using a plate spectrophotometer. […] The relaxin levels were quantified according to a standard curve generated by measuring purified recombinant relaxin in a 20% human serum matrix utilizing a four-parameter curve fit equation. […]
# [4] = tested on: healthy primiparous women at ≧40 weeks gestation; test: Clinical study: safety (adverse events in subjects, fetuses, neonates); assay type: in vivo, human; conditions: for Serious adverse events in neonates (number): none related to the study drug
# Procedure: Safety. Safety was assessed by means of reported and observed adverse events, physical examination and 12-lead ECG findings, vital sign measurements, and the results of clinical laboratory assessments. Serum clinical chemistry samples were taken at pre-dose, 12 and 24 hours following the start of dosing, 2 days, 1 week and 4 weeks postpartum. Maternal vital signs included temperature, heart rate and blood pressure. These evaluations were performed at screening, pre-dose, during dosing, 24-48 hours post-dosing and at 2 days, 1 week and 4 weeks post-partum. Measurements during the 24-48 hours post-dosing period were taken at 28, 32, 36, 40, 44 and 48 hours. Neonatal vital signs included temperature, pulse, respiration and blood pressure. All vital signs measurements were done at delivery, 2 days, 1 week and 4 weeks post-partum.
# Adverse events in study subjects were recorded according to the time of onset, i.e. dosing period (0-24 hours), 24-hours post-infusion (24-48 hours) and follow-up (>48 hours). Adverse events reported in fetuses and in neonates were also summarized by treatment group. For laboratory tests (hematology, serum chemistry, urinalysis), vital signs, physical examination and ECGs summary statistics were provided for baseline and changes from Baseline for each scheduled time by treatment group. Post-hoc repeated measure analyses of systolic and diastolic blood pressure were also performed.
# myometrium = conditions: in vitro, nonpregnant and pregnant uteri (MacLennan 1991); cited from earlier work
# nonpregnant women = conditions: administered intravaginally, cited from earlier work
# women = conditions: cited from earlier work
# [5] = Last Obs., pooled relaxin group
# [6] = pooled relaxin group, p 0.153 vs placebo
# [7] = pooled relaxin group, p 0.213 vs placebo
molecule,measurement,setting,value
CC(=O)[C@H]1CC[C@H]2[C@@H]3CCC4=CC(=O)CC[C@]4(C)[C@H]3CC[C@]12C [progesterone],stopping uterine contractions,uterine contractions,effective in stopping uterine contractions
relaxin,Total Bishop scores in the lower relaxin dose groups,"[1]; 7.5 and 25 μg/kg/day, Part A, data not shown",no different than that seen in the pooled placebo group
same,"Total Bishop Score - Change from Baseline, Maximum","[1]; 6 hours, pooled relaxin group",9
same,"Total Bishop Score - Change from Baseline, Median","[1]; 6 hours, pooled relaxin group",1.00
same,"Total Bishop Score - Change from Baseline, Minimum","[1]; 6 hours, pooled relaxin group",0
same,"Total Bishop Score - Change from Baseline, Mean","[1]; 6 hours, pooled relaxin group, P 0.2407 vs pooled placebo",1.55
same,"Total Bishop Score - Change from Baseline, Maximum","[1]; 12 hours, pooled relaxin group",7
same,"Total Bishop Score - Change from Baseline, Median","[1]; 12 hours, pooled relaxin group",2.00
same,"Total Bishop Score - Change from Baseline, Minimum","[1]; 12 hours, pooled relaxin group",0
same,"Total Bishop Score - Change from Baseline, Mean","[1]; 12 hours, pooled relaxin group, P 0.1085 vs pooled placebo",2.11
same,increase in cervical dilation from the initial dilation,"[1]; 24 hour time point, pooled relaxin group 75 mcg/kg/day IV (placebo 1.39 cm)",0.69 cm
same,"Total Bishop Score - Change from Baseline, Maximum","[1]; 24 hours, pooled relaxin group",7
same,"Total Bishop Score - Change from Baseline, Median","[1]; 24 hours, pooled relaxin group",4.00
same,"Total Bishop Score - Change from Baseline, Minimum","[1]; 24 hours, pooled relaxin group",0
same,"Total Bishop Score - Change from Baseline, Mean","[1]; 24 hours, pooled relaxin group, P 0.2507 vs pooled placebo",3.26
same,"Total Bishop Score - Change from Baseline, Mean","[1]; Last Obs. (last available value post-baseline), pooled relaxin group, P 0.4900 vs pooled placebo",3.59
same,"Total Bishop Score - Change from Baseline, Maximum",[1]; [5],9
same,"Total Bishop Score - Change from Baseline, Median",[1]; [5],4.00
same,"Total Bishop Score - Change from Baseline, Minimum",[1]; [5],0
same,"Bishop score, difference between pooled relaxin and placebo groups","[1]; any of the observation times (6, 12, 24 hours)",no statistically significant differences
same,cervical dilation compared to the placebo group,"[1]; pooled relaxin group, p<0.024 by t-test",significantly reduced
same,Time to Vaginal Delivery (mean + SD),"[2]; pooled relaxin group, n = 20, p 0.644 vs placebo",62 ± 40 h
same,Time to Onset of Active Labor,"[2]; pooled relaxin group, n = 26, p 0.412 vs placebo",53 h
same,Time to Delivery for Vaginal + C-section (mean + SD),"[2]; pooled relaxin group, n = 29, p 0.251 vs placebo",69 ± 40 h
same,Incidence of Vaginal Deliveries,[2]; [6],(69%)
same,Incidence of Vaginal Deliveries (subjects/total),[2]; [6],20/29
same,Incidence of Spontaneous Labor,[2]; [7],(41%)
same,Incidence of Spontaneous Labor (subjects/total),[2]; [7],12/29
same,"effect on incidence or time to vaginal delivery, incidence of spontaneous labor or time to the onset of labor",[2]; relaxin infusion vs placebo,did not significantly affect
same,serum relaxin concentration post partum,[3]; 2 days post partum,just above levels of detection
same,peak mean serum relaxin concentration,"[3]; relaxin group, 75 mcg/kg/day IV infusion, at 12 hours of dosing",13.0 ng/mL
same,Mean serum relaxin concentration at baseline,"[3]; relaxin group, baseline, reflecting endogenous relaxin levels",0.293 ng/mL
same,Serious adverse events in neonates (number),[4]; 7.5 mcg/kg/d dose group,one
same,adverse effects over the entire dosage range,"[4]; intravenous, 7.5-75 mcg/kg/day, pregnant women at term",no relevant adverse effects
same,Serious adverse events in neonates (number),[4]; pooled relaxin group (75 mcg/kg/day),4
same,Serious adverse events in fetuses (number of events),"[4]; pooled relaxin group, fetal hypoxia of moderate severity, not related to the study drug",Two
same,effect on fetal heart rate,[4]; relaxin treatment,no effect
same,effect on myometrial contractions,myometrium,"inhibits myometrial contractions of nonpregnant uteri, but does not affect the myometrium of pregnancy"
same,effect on cervical ripening,nonpregnant women; nonpregnant women,did not show any effect
same,safety of administration,nonpregnant women,safe and associated with minimal adverse side effects
same,serum levels of relaxin after treatment,nonpregnant women,did not increase
CCCCCC(=O)O[C@]1(C(C)=O)CC[C@H]2[C@@H]3CCC4=CC(=O)CC[C@]4(C)[C@H]3CC[C@@]21C [17 alpha-hydroxyprogesterone caproate],safety questioned by the FDA,"uterine contractions; Meis et al. 2003, FDA advisory committees 2006",increase in miscarriage and fetal death
same,stopping uterine contractions,uterine contractions,effective in stopping uterine contractions
porcine relaxin,spontaneous labor,women; intracervical gel vs placebo (MacLennan 1986),more likely to go into spontaneous labor
same,cervical effacement and time to delivery,"women; intracervical pellet, randomized double-blind controlled trial (Evans et al. 1983)",greater cervical effacement (thinning) and a shorter time to delivery
